As a reminder, the LD50 is the dose expected to kill half of the subjects tested. Read a low LD50 as a more toxic substance.

SMILES strings stand for the structures. Structures can show the parent of a compound that is named as a salt.

Series [1] can be described thus: Acute toxicity. The conditions noted are these: mouse, in vivo; DDY male mice, oral, 0.5 % methylcellulose suspension, seven days after medication, Probit method. The method, then:
Acute toxicity:- • DDY strain male mice of 5 weeks old, every 10 mice being grouped, received orally the test compound in the form of 0.5 % methylcellulose suspension at a dose from five kinds increasing with a common ratio of 1.3, and observation on the death of animals was continued. Seven days after the medication, the LD50 value was calculated from the rate of death according to the Probit method.

For series [2], the system named is Candida albicans KB-8. In words: Antifungal activity test (in vivo), Candida albicans infection in mice. The conditions noted are these: DDY male mice infected i.v. with 10^7 cells; oral, total dose 20 mg/kg at 0, 5, 24 and 48 hours after infection; 10 days observation; number in brackets is the non-medicated control. The protocol: Antifungal activity test (in vivo):-Candida albicans KB-8 as pre-cultured at 30°C for 4 days was suspended in physiologically saline solution, and the suspension was intravenously injected into DDY strain
male mice of 5 weeks old, every 10 animals being grouped, through the tail vein so as to inoculate a cell number of 10^7 per animal.
The animals were orally medicated with the test compound in the form of 0.5 % methylcellulose suspension at a total dose of 20 mg per kg of the body weight 0, 5, 24 and 48 hours after the infection, and observation was continued for 10 days after the infection. The results are shown in Table 2, wherein the numeral indicates an average number of survival days of 10 animals as one group in contrast to that of the non-medicated (control) group.
For comparison, the following compounds were also tested: [drawing 6] [drawing 7]

Series [3] can be described thus: Liver weight increase test. The conditions noted are these: mice infected with Candida albicans KB-8, survived animals. It counts as in vivo, DDY strain male mice. The text has this: Liver weight increase test:- • Candida albicans KB-8 was intraveously injected into DDY strain male mice of 5 weeks old, every 20 animals being grouped, at a rate of […] cells per mouse. After infection, the animals were orally medicated with the test compound in the form of 0.5 % methylcellulose suspension once a day for 20 consecutive days, during which observation on the liver weight was continued.
The average liver weight in survived animals as calculated are shown in Table 5, from which it is understood that the liver weight is not increased when the compound of the invention is given at a daily dose of not more than 4 mg/kg, while the liver weight is increased when the compound of Japanese Patent Publn. (unexamined) No. 185571/83 is given at a daily dose of not less than 1 mg/kg.

For series [4], the system named is Cryptococcus neoformans MTU 13001. In words: Antifungal activity test (in vivo), Cryptococcus neoformans infection in mice. The conditions noted are these: DDY male mice infected i.v. with 2 x 10^6 cells, oral; for Survival rate at complete death of non-medicated group (%): total dose 20 mg/kg at 0, 5, 24 and 48 hours; for Average survival day(s): total dose 20 mg/kg, 10 days observation. The method, then:
(§1) Antifungal activity test (in vivo):- • Aspergillus fumigatus MTU 16001 or Cryptococcus neoformans MTU 13001 as pre-cultured at 30°C for 4 days was suspended in physiologically saline solution, and the suspension was intravenously injected into DDY strain male mice of 5 weeks old (body weight, 24 - 27 g), every 10 animals being grouped, through the tail vein so as to inoculate a cell number of 2 x 10^6 per animal.
(§2) The animals were orally medicated with the test compound in the form of 0.5 % methylcellulose suspension at a total dose of 20 mg per kg of the body weight 0, 5, 24 and 48 hours after the infection, and observation was continued for 10 days after the infection. The results are shown in Table 3, wherein the numeral indicates an average number of survival days of 10 animals as one group in contrast to that of the non-medicated (control) group.

Series [5] has as its system Aspergillus fumigatus MTU 16001. Put plainly: Antifungal activity test (in vivo), Aspergillus fumigatus infection in mice. The conditions noted are these: DDY male mice infected i.v. with 2 x 10^6 cells, oral; for Survival rate at complete death of non-medicated group (%): total dose 20 mg/kg at 0, 5, 24 and 48 hours; for Average survival day(s): total dose 20 mg/kg, 10 days observation. The protocol: as §1, §2

[6] abbreviates: dose 0.5 mg/kg p.o. once a day for 20 consecutive days.
Setting [7] is: dose 1.0 mg/kg p.o. once a day for 20 consecutive days.
Setting [8] is: dose 2.0 mg/kg p.o. once a day for 20 consecutive days.
Where [9] appears, read: dose 4.0 mg/kg p.o. once a day for 20 consecutive days.
Setting [10] is: dose 8.0 mg/kg p.o. once a day for 20 consecutive days.

In the case of `CC(=O)N1CCN(c2ccc(OCC3COC(Cn4ccnc4)(c4ccc(Cl)cc4Cl)O3)cc2)CC1` (stereo not drawn) [Ketoconazole, reference compound], in series [1], the LD50 at 168 h amounted to 1100 mg/kg. In series [2], the “Average survival days (control)” value is 4.8 (0.8) days.

Turning to `CCCCC[S+]([O-])CC(O)(Cn1cncn1)c1ccc(Cl)cc1Cl` (single isomer, unassigned) [1A, 2-(2,4-dichlorophenyl)-3-n-pentylsulfinyl-l-(l,2,4-triazol-1-yl)propan-2-ol oxalate], in series [1], the LD50 at 168 h is 1740 mg/kg. Moreover, the “Average survival days (control)” value in series [2] is recorded as 9.0 (1.2) days. Further, the “Average weight of liver” value in series [3] (setting [6]) came out at 1.20 g; in series [3] (setting [7]), 1.18 g; in series [3] (setting [8]), 1.15 g; in series [3] (setting [9]), 1.25 g; in series [3] (setting [10]) it was 1.60 g.

Turning to `CCC(C)(C)[S+]([O-])CC(O)(Cn1cncn1)c1ccc(Cl)cc1Cl` (stereo not drawn) [Compound No. 2A, 2-(2,4-dichlorophenyl)-3-tert-pentylsulfinyl-1-(1,2,4-triazol-1-yl)propan-2-ol], the LD50 at 168 h in series [1] came out at 1830 mg/kg. In addition, the figures for the “Survival rate at complete death of non-medicated group (%)” value in series [4] and in series [5] were 90% and 70%, respectively. The “Average survival day(s)” value turned out to be 743000 s in series [4] and 311000 s in series [5]. The “Average survival days (control)” value in series [2] is listed as 9.7 (1.2) days.

For the compound `CCC(C)(C)S(=O)(=O)CC(O)(Cn1cncn1)c1ccc(Cl)cc1Cl` (stereo not drawn) [II, reference compound], the “Average survival days (control)” value in series [2] was 1.4 (1.0) days.

`CCCC(C)[S+]([O-])CC(O)(Cn1cncn1)c1ccc(Cl)cc1Cl` (single isomer, unassigned) [4A] came in with an LD50 at 168 h in series [1] greater than 1500 mg/kg. Further, in series [2], the “Average survival days (control)” value was 9.2 (1.2) days.

In the case of `CCC(CC)[S+]([O-])CC(O)(Cn1cncn1)c1ccc(Cl)cc1Cl` (single isomer, unassigned) [5A], the LD50 at 168 h in series [1] was greater than 2000 mg/kg. For the same compound, the “Average survival days (control)” value in series [2] is listed as 8.9 (1.2) days.

Regarding `CC(C)CC[S+]([O-])CC(O)(Cn1cncn1)c1ccc(Cl)cc1Cl` (single isomer, unassigned) [3A], the LD50 at 168 h in series [1] is greater than 2000 mg/kg. For the same compound, the “Average survival days (control)” value in series [2] was 7.7 (1.2) days.

`CS(=O)(=O)CC(O)(Cn1cncn1)c1ccc(Cl)cc1Cl` (stereo not drawn) [I, reference compound]: the LD50 at 168 h in series [1] is 770 mg/kg. In addition, the entries for the “Survival rate at complete death of non-medicated group (%)” value in series [4] and in series [5] were 80% and 60%, respectively. Besides, the figures for the “Average survival day(s)” value in series [4] and in series [5] were 674000 s and 233000 s, respectively. Besides, in series [2], the “Average survival days (control)” value was 9.6 (1.2) days. Also, the “Average weight of liver” value in series [3] (setting [6]) is listed as 1.30 g; in series [3] (setting [7]) it was 1.50 g; in series [3] (setting [8]), 1.70 g; in series [3] (setting [9]), 1.85 g; in series [3] (setting [10]), 1.90 g.

These data come from EP0140154A2, “1,2,4-Triazolylpropanols, and their production and use” (SUMITOMO CHEMICAL COMPANY, LIMITED, priority 1983, dated 1985).
